According to patent publication US20070092474A1, “Carnitine salt, preliposome which contains it and dermocosmetic formula for topical use based upon said carnitine salt” (priority 2003, published 2007):
Where “and” joins values, the source holds several entries; their conditions need not be identical. Equal values may be shown once.

Tested on: skin blemishes caused by cellulite and localised adiposity
Assay: Plicometry: skin plica thickness measured with a plicometer, dermatological test of the cosmetic gel
Type: in vivo, female volunteers
Set-up: RIGHT PLICOMETRY 1/3 T0 / RIGHT PLICOMETRY 3/3 T15 / RIGHT PLICOMETRY 3/3 T30 / RIGHT PLICOMETRY 3/3 T60 / RIGHT PLICOMETRY 1/3 T15 / RIGHT PLICOMETRY 1/3 T30 / RIGHT PLICOMETRY 1/3 T60 / RIGHT PLICOMETRY 2/3 T0 / RIGHT PLICOMETRY 2/3 T15 / RIGHT PLICOMETRY 2/3 T30 / RIGHT PLICOMETRY 2/3 T60 / RIGHT PLICOMETRY 3/3 T0 / LEFT PLICOMETRY 1/3 T0 / LEFT PLICOMETRY 3/3 T15 / LEFT PLICOMETRY 3/3 T30 / LEFT PLICOMETRY 3/3 T60 / LEFT PLICOMETRY 1/3 T30 / LEFT PLICOMETRY 1/3 T60 / LEFT PLICOMETRY 2/3 T0 / LEFT PLICOMETRY 2/3 T15 / LEFT PLICOMETRY 2/3 T30 / LEFT PLICOMETRY 2/3 T60 / LEFT PLICOMETRY 3/3 T0: unit not given beside the values
Procedure: A dermatological test was carried out on 25 female volunteers between 18 and 65 years of age, with the backing of the Department of Physiological and Pharmacological Sciences of the university of Pavia. The investigation aimed to check the modification of three anatomical-physiological parameters, qualifying the unaesthetic-functional aspect connected to the manifestation of so-called cellulite and subcutaneous hypertriglyceridaemia: measurement of the skin folds, measurement of the circumference of the thighs, thermographic skin measurement.
The test stretched out over 60 days with the continual daily application of the aforementioned preparation of cosmetic gel. The measurements were carried out after 15, 30 and 60 days. The detail of the test protocol and of the results obtained is shown hereafter.
25 female volunteers aged between 18 and 65, with the presence of skin blemishes caused by cellulite and localised adiposity, were selected according to the following criteria: good general state of health, absence of skin pathologies, not being under medication, commitment not to vary the normal daily routine, no medical history of atopy.
The samples were tested by uniformly applying them on “Glute SX Glute DJ (Femoris Posto SX Femoris Posto DX Femoris Ant. SX Femoris Ant. DX” every day at least once per day for the entire duration of the test.
At the time of inclusion in the study and during the subsequent checks after 15 days (T15), after 30 days (T30) and after 60 days (T60) of treatment the following instrumental measurements were taken: • plicometry (through a plicometer) • thigh circumference (through a measuring tape broken into millimetres) • contact thermography (through liquid crystal thermographic plates).
In particular, the plicometer used in the test constitutes the suitable instrument for measuring the skin plica thickness. Skin plicometry provides numerical data of particular use when the panniculopathic process of the cellulite is associated with localised adiposity.

[1] = MEDIA of 25 volunteers, T0 at inclusion, before treatment
[2] = MEDIA of 25 volunteers, after 15 days of daily gel application
[3] = MEDIA of 25 volunteers, after 30 days of daily gel application
[4] = MEDIA of 25 volunteers, after 60 days of daily gel application
[5] = individual volunteer, T0 at inclusion, before treatment
[6] = individual volunteer, after 15 days of daily gel application
[7] = individual volunteer, after 30 days of daily gel application
[8] = individual volunteer, after 60 days of daily gel application

carnitine hydroxycitrate [carnitine hydroxy citrate]
LEFT PLICOMETRY 1/3 T0, MEDIA [1]: 25.7
LEFT PLICOMETRY 2/3 T0, MEDIA [1]: 29.6
LEFT PLICOMETRY 3/3 T0, MEDIA [1]: 31.2
RIGHT PLICOMETRY 1/3 T0, MEDIA [1]: 25.7
RIGHT PLICOMETRY 2/3 T0, MEDIA [1]: 30.9
RIGHT PLICOMETRY 3/3 T0, MEDIA [1]: 33.0
LEFT PLICOMETRY 1/3 T15, MEDIA [2]: 25.3
LEFT PLICOMETRY 2/3 T15, MEDIA [2]: 28.9
LEFT PLICOMETRY 3/3 T15, MEDIA [2]: 30.6
RIGHT PLICOMETRY 1/3 T15, MEDIA [2]: 24.4
RIGHT PLICOMETRY 2/3 T15, MEDIA [2]: 29.6
RIGHT PLICOMETRY 3/3 T15, MEDIA [2]: 32.3
LEFT PLICOMETRY 1/3 T30, MEDIA [3]: 23.5
LEFT PLICOMETRY 2/3 T30, MEDIA [3]: 27.3
LEFT PLICOMETRY 3/3 T30, MEDIA [3]: 29.1
RIGHT PLICOMETRY 1/3 T30, MEDIA [3]: 23.4
RIGHT PLICOMETRY 2/3 T30, MEDIA [3]: 28.3
RIGHT PLICOMETRY 3/3 T30, MEDIA [3]: 30.9
LEFT PLICOMETRY 1/3 T60, MEDIA [4]: 22.5
LEFT PLICOMETRY 2/3 T60, MEDIA [4]: 26.6
LEFT PLICOMETRY 3/3 T60, MEDIA [4]: 28.2
RIGHT PLICOMETRY 1/3 T60, MEDIA [4]: 22.7
RIGHT PLICOMETRY 2/3 T60, MEDIA [4]: 27.7
RIGHT PLICOMETRY 3/3 T60, MEDIA [4]: 29.9
LEFT PLICOMETRY 1/3 T0 [5]: 23.3 and 17.8 and 35.9 and 24.9 (2×) and 21.1 and 25.9 and 19.8 and 26.7 and 26.0 and 31.1 and 26.6 and 19.7 and 22.9 (2×) and 24.6 and 32.8 and 28.1 and 24.0 and 30.8 and 27.9 and 22.8 and 34.6 and 16.8 and 30.5
LEFT PLICOMETRY 2/3 T0 [5]: 28.7 and 22.6 and 38.8 and 24.8 and 27.1 and 28.9 and 28.1 and 40.9 and 33.9 and 30.8 and 27.6 and 24.3 and 27.8 and 20.6 and 31.8 and 29.9 and 22.9 and 27.2 and 25.4 and 35.4 and 39.7 and 25.3 and 41.6 and 23.5 and 32.5
LEFT PLICOMETRY 3/3 T0 [5]: 34.9 and 21.8 and 37.9 and 27.8 and 30.8 and 33.3 and 26.8 and 41.6 and 28.1 and 35.9 (2×) and 35.3 and 20.6 and 33.5 (2×) and 20.1 and 20.3 and 37.2 and 17.8 and 34.1 and 41.5 and 22.9 and 40.9 and 28.9 and 38.1
RIGHT PLICOMETRY 1/3 T0 [5]: 30.5 and 23.3 and 17.8 and 35.9 and 24.9 (2×) and 21.1 and 25.9 and 19.8 and 26.7 and 26.0 and 31.1 and 26.6 and 19.7 and 22.9 (2×) and 24.6 and 32.8 and 28.1 and 24.0 and 30.8 and 27.9 and 22.8 and 34.6 and 16.8
RIGHT PLICOMETRY 2/3 T0 [5]: 37.2 and 30.8 and 26.7 and 32.8 and 20.9 and 29.2 and 36.8 and 26.3 and 34.9 and 35.5 and 33.5 and 29.7 and 24.8 and 29.9 and 22.4 and 31.2 and 33.7 and 27.7 and 26.8 and 25.3 and 37.8 and 41.5 and 28.8 and 39.8 and 27.0
RIGHT PLICOMETRY 3/3 T0 [5]: 40.1 and 41.6 and 25.9 and 32.7 and 29.9 (2×) and 33.8 and 37.1 and 39.8 and 40.6 and 37.7 and 36.8 (2×) and 28.8 and 29.4 and 25.6 and 32.3 and 39.9 and 22.3 and 19.8 and 35.1 and 42.6 and 22.9 and 36.2 and 26.8
LEFT PLICOMETRY 1/3 T15 [6]: 22.6 (3×) and 17.1 and 35.2 and 24.2 (2×) and 20.4 and 25.2 and 19.1 and 26.0 and 25.3 and 30.4 and 27.2 and 19.6 and 23.9 and 32.9 and 27.4 and 24.6 and 30.6 and 27.8 and 22.8 and 33.9 and 16.1 and 29.8
LEFT PLICOMETRY 2/3 T15 [6]: 28.0 and 21.9 and 38.1 and 24.1 and 26.4 and 28.2 and 27.4 and 40.2 and 33.2 and 30.1 and 26.9 and 23.6 and 27.1 and 19.9 and 31.1 and 29.2 and 22.2 and 26.5 and 24.7 and 34.7 and 39.0 and 24.6 and 40.9 and 22.8 and 31.8
LEFT PLICOMETRY 3/3 T15 [6]: 34.3 and 21.2 and 37.3 and 27.2 and 30.2 and 32.7 and 26.2 and 41.0 and 27.5 and 35.3 (2×) and 34.7 and 20.0 and 32.9 (2×) and 19.5 and 19.7 and 36.6 and 17.2 and 33.5 and 40.9 and 22.3 and 40.3 and 28.3 and 37.5
RIGHT PLICOMETRY 1/3 T15 [6]: 29.0 and 22.0 and 16.5 and 34.5 and 23.5 (2×) and 19.6 and 24.5 and 18.4 and 25.3 and 24.2 and 30.0 and 27.1 and 19.5 and 23.0 and 23.2 and 31.0 and 20.3 and 26.7 and 22.6 and 29.4 and 26.5 and 21.4 and 33.2 and 15.4
RIGHT PLICOMETRY 2/3 T15 [6]: 35.7 and 28.5 and 25.2 and 30.8 and 19.4 and 27.7 and 35.3 and 24.8 (2×) and 33.4 and 34.0 and 32.0 and 27.3 (2×) and 23.0 and 29.6 and 20.9 and 31.5 and 32.2 and 27.8 and 25.3 and 38.1 and 40.0 and 37.3 and 27.0
RIGHT PLICOMETRY 3/3 T15 [6]: 40.0 (2×) and 24.9 and 31.7 and 28.9 (2×) and 32.8 and 37.5 and 39.6 and 39.8 and 37.8 and 35.9 and 28.2 and 28.4 and 26.1 and 32.0 and 38.9 and 21.3 and 37.0 and 18.8 and 34.1 and 41.6 and 21.9 and 34.9 and 25.8
LEFT PLICOMETRY 1/3 T30 [7]: 21.0 and 15.5 and 33.6 and 22.6 and 18.8 and 23.6 and 17.5 and 24.4 and 23.7 and 28.8 and 24.3 and 17.4 and 20.6 and 22.3 and 30.5 and 23.5 and 20.2 and 25.8 and 23.8 and 28.5 and 25.6 and 21.6 and 32.3 and 14.5 and 28.2
LEFT PLICOMETRY 2/3 T30 [7]: 26.4 and 20.3 and 36.5 and 22.5 and 24.8 and 26.6 and 25.8 and 38.6 and 31.6 and 28.5 and 25.3 and 22.0 and 25.5 and 18.3 and 29.5 and 27.6 and 20.6 and 24.9 and 23.0 (2×) and 33.5 and 37.4 and 39.3 and 21.2 and 30.2
LEFT PLICOMETRY 3/3 T30 [7]: 32.8 and 19.7 and 35.8 and 25.7 and 28.7 and 31.2 and 24.7 and 39.5 and 26.0 and 33.8 (2×) and 33.2 and 18.5 (2×) and 31.4 (2×) and 18.2 and 35.1 and 15.7 and 32.0 and 39.4 and 20.8 and 38.8 and 26.8 and 36.0
RIGHT PLICOMETRY 1/3 T30 [7]: 28.2 and 18.9 and 15.5 and 33.2 and 22.4 and 18.8 and 23.6 and 17.5 and 24.4 and 24.2 and 28.8 and 26.5 and 17.4 and 22.7 and 21.8 and 31.2 and 22.6 and 20.5 (2×) and 25.8 and 21.7 and 27.6 and 24.3 and 32.5 and 14.5
RIGHT PLICOMETRY 2/3 T30 [7]: 34.6 and 28.2 and 24.0 and 30.2 and 18.2 and 25.4 (2×) and 34.0 and 23.7 and 33.5 and 32.9 and 30.0 and 27.6 and 21.7 and 26.5 and 20.0 and 30.8 and 31.0 and 23.9 and 22.3 and 38.1 and 40.0 and 26.2 and 35.6 and 24.3
RIGHT PLICOMETRY 3/3 T30 [7]: 40.2 and 39.9 and 23.6 and 30.4 and 27.6 (2×) and 31.5 and 36.9 and 38.4 and 38.5 and 36.2 and 33.6 and 26.3 and 26.5 and 23.7 and 31.2 and 37.6 and 19.6 and 36.4 and 17.5 and 30.5 and 39.8 and 20.4 and 34.0 and 25.6
LEFT PLICOMETRY 1/3 T60 [8]: 20.5 and 15.0 and 30.9 and 22.1 (2×) and 18.3 and 23.1 and 17.0 and 23.9 (2×) and 23.2 and 27.6 and 23.6 and 16.5 and 18.4 and 21.2 and 30.5 and 19.8 and 25.3 and 20.7 and 26.2 and 21.5 and 30.4 and 14.0 and 27.7
LEFT PLICOMETRY 2/3 T60 [8]: 25.7 and 19.6 and 35.8 and 21.8 and 24.1 and 25.9 and 25.1 and 37.9 and 30.9 and 27.8 and 24.6 and 21.3 and 24.8 and 17.6 and 28.8 and 26.9 and 19.9 and 24.2 and 22.4 and 32.4 and 36.7 and 22.3 and 38.6 and 20.5 and 29.5
LEFT PLICOMETRY 3/3 T60 [8]: 31.9 and 18.8 and 34.9 and 24.8 and 27.8 and 30.3 and 23.8 and 38.6 and 25.1 and 33.2 and 32.3 and 17.6 and 29.6 and 17.2 and 30.5 and 32.9 and 18.5 and 34.2 and 14.8 and 31.0 and 38.5 and 19.9 and 37.9 and 25.9 and 35.1
RIGHT PLICOMETRY 1/3 T60 [8]: 27.5 and 20.5 and 15.0 and 32.1 and 22.0 and 17.8 and 23.0 and 16.7 (2×) and 23.7 and 24.6 and 27.6 and 26.6 and 21.5 and 21.7 and 28.9 and 21.4 and 18.4 and 24.1 and 21.3 and 28.0 and 23.9 and 19.9 and 31.7 and 13.8
RIGHT PLICOMETRY 2/3 T60 [8]: 34.0 and 26.3 and 23.2 and 29.4 and 17.3 and 26.0 and 32.8 and 23.5 and 33.6 and 32.1 and 30.0 and 26.5 and 20.9 and 26.7 and 20.0 and 27.8 and 29.7 and 25.6 (2×) and 23.9 and 21.8 and 37.7 and 40.0 and 35.3 and 23.8
RIGHT PLICOMETRY 3/3 T60 [8]: 38.9 and 37.4 (2×) and 22.3 (2×) and 29.4 and 27.0 and 32.1 and 35.2 and 36.8 and 26.9 and 35.6 and 33.2 (2×) and 25.3 and 26.6 and 29.5 and 35.4 and 18.2 and 34.1 and 17.0 and 30.9 and 39.8 and 19.7 and 23.7
